Each structure is given as a SMILES string. ≈ marks a conversion by molar mass, not a printed value.

These results are taken from patent US7524823B2, “Macrolides” (Basilea Pharmaceutica AG, priority 2005, dated 2009).

Common to all, as to assay type: cell-based
For assay [1], the system named is Streptococcus pneumoniae 1/1. The experiment in a line: MIC by broth microdilution (CAMHB + 5% horse serum, NCCLS). The settings on record: code D: Streptococcus pneumoniae 1/1. As for the experimental part: (§1) MIC values for non-anaerobes were obtained by broth microdilution using CAMHB (BBL) according to NCCLS guidelines (National Committee for Clinical Laboratory Standards. Methods for dilution antimicrobial susceptibility tests for bacteria that grow aerobically, 5th ed. Approved standard M7-A6. NCCLS, Wayne, Pa., 2003). Drugs were dissolved in DMSO prior to dispensing into 96-well microtitre plates; the concentration of DMSO in assay wells never exceeded 2% (v/v). CAMHB was supplemented with 5% (v/v) horse serum (Sigma, cat. no. H-1270) in lieu of laked horse blood for cultivation of Streptococcus pneumoniae, and with 5% (v/v) Fildes enrichment (BBL, cat. no. 220810) supernate in lieu of Haemophilus Test Medium and additives for cultivation of Haemophilus influenzae (Pankuch G A, Hoellman D B, Lin G, Bajaksouzian S, Jacobs M R, Appelbaum P C. Activity of HMR 3647 compared to those of five agents against Haemophilus influenzae and Moraxella catarrhalis by MIC determination and time-kill assay. Antimicrob. Agents Chemother. November 1998; 42(11): 3032-4). Activities expressed as the minimal inhibitory concentrations (MICs) (μg/ml) are given in the following Table 3, and the microorganisms used for testing are listed in Table 2 below.

The subject of assay [2] is Streptococcus pneumoniae SL199T. Described as above. To be noted: code E: Streptococcus pneumoniae SL199T. The procedure:
as §1

In assay [3] the test system is Streptococcus pneumoniae Tupelo. Described as above. The settings on record: code F: Streptococcus pneumoniae Tupelo. As for the experimental part:
as §1

Assay [4] has as its system Haemophilus influenzae 12214. The experiment in a line: MIC by broth microdilution (CAMHB + 5% Fildes enrichment, NCCLS). To be noted: code G: Haemophilus influenzae 12214. As for the experimental part: as §1
Background: Broth dilution looks for growth in wells or tubes with falling amounts of substance.

For assay [5], the system named is Haemophilus influenzae QK50. Described as above. To be noted: code H: Haemophilus influenzae QK50. The procedure:
as §1

Assay [6] relates to Staphylococcus aureus 1086. As to the kind of experiment: MIC by broth microdilution (CAMHB, NCCLS). The settings on record: code B: Staphylococcus aureus 1086. As for the experimental part: as §1
The subject of assay [7] is Escherichia coli ATCC 25922. As to the kind of experiment: MIC by broth microdilution (CAMHB, NCCLS). The settings on record: code C: Escherichia coli ATCC 25922. As for the experimental part: as §1
Assay [8] deals with Staphylococcus aureus ATCC 29213. As to the kind of experiment: MIC by broth microdilution (CAMHB, NCCLS). To be noted: code A: Staphylococcus aureus ATCC 29213. As for the experimental part:
as §1

Assay [9] has as its system Propionibacterium acnes EG7NS. As to the kind of experiment: MIC by anaerobic broth microdilution (WCB, NCCLS). The settings on record: code I: Propionibacterium acnes EG7NS; anaerobic, 35-37° C., 48 h. As for the experimental part:
(§2) MIC values towards strains of propionibacteria were obtained by broth microdilution using WCB (Anaerobe Broth MIC, Difco) according to NCCLS guidelines (National Committee for Clinical Laboratory Standards. Methods for anti-microbial susceptibility testing of anaerobic bacteria, 5th ed.; approved standard. NCCLS publication no. M11-A5. NCCLS, Wayne, Pa., 2001). Microtitre plates were loaded into 7-L GENbox anaerobic incubation jars (BioMérieux, cat. no. 96 128) fitted with anaerobic atmosphere generators (BioMérieux, cat. no. 96 124) and a Dry Anaerobic Indicator Strip (BBL, cat. no. 271051). Under these conditions, an O2 concentration <0.1% was achieved by 2.5 h, and a CO2 concentration >15% by 24 h. MIC values were read after incubation at 35-37° C. for 48 h (Table 3).

In assay [10] the test system is Propionibacterium acnes SW101T. The experiment in a line: MIC by anaerobic broth microdilution (WCB, NCCLS). To be noted: code K: Propionibacterium acnes SW101T, 35-37° C., 48 h. The procedure: as §2

`CC[C@H]1OC(=O)[C@H](C)[C@@H](O[C@H]2C[C@@](C)(OC)[C@@H](O)[C@H](C)O2)[C@H](C)[C@@H](O[C@@H]2O[C@H](C)C[C@H](N(C)C)[C@H]2O)[C@](C)(OC)C[C@@H](C)C(=O)[C@H](C)[C@H]2[C@H](SCCn3cc(C)c(=O)[nH]c3=O)C(=O)O[C@@]21C` [Example 21]: the MIC result is “<=0.06 μg/ml” in assay [1]; 0.5 µg/mL in assay [2]; 2 µg/mL in assay [3]; 4 µg/mL in assay [4]; 4 µg/mL in assay [5]; above 32 µg/mL in assay [6]. In addition, the MIC in assay [7] was above 32 µg/mL; in [8], 2 µg/mL (≈ 2.09 µM); in assay [9] it was “<=0.06 μg/ml”; in [10], 4 µg/mL (≈ 4.18 µM).

For `CC[C@H]1OC(=O)[C@H](C)[C@@H](O[C@H]2C[C@@](C)(OC)[C@@H](O)[C@H](C)O2)[C@H](C)[C@@H](O[C@@H]2O[C@H](C)C[C@H](N(C)C)[C@H]2O)[C@](C)(OC)C[C@@H](C)C(=O)[C@H](C)[C@H]2[C@H](SCCn3ncc4c(N)ncnc43)C(=O)O[C@@]21C` [Example 13], the MIC result in [1] was “<=0.06 μg/ml”; in assay [2] it was 0.125 µg/mL; in assay [3] it was 0.25 µg/mL; in [4] it was 4 µg/mL; in [5] it was 4 µg/mL; in assay [6], 16 µg/mL (≈ 16.6 µM). Moreover, the MIC result is “>=32 μg/ml” in [7], 2 µg/mL (≈ 2.07 µM) in assay [8], “<=0.06 μg/ml” in [9] and 2 µg/mL (≈ 2.07 µM) in assay [10].

As to `CC[C@H]1OC(=O)[C@H](C)[C@@H](O[C@H]2C[C@@](C)(OC)[C@@H](O)[C@H](C)O2)[C@H](C)[C@@H](O[C@@H]2O[C@H](C)C[C@H](N(C)C)[C@H]2O)[C@](C)(OC)C[C@@H](C)C(=O)[C@H](C)[C@H]2[C@H](SCC(=O)c3ccc(OC)cc3OC)C(=O)O[C@@]21C` [Example 27], the MIC entry in [1] is “<=0.06 μg/ml”; in assay [2], 4 µg/mL; in assay [3], 4 µg/mL; in [4] it was 8 µg/mL; in assay [5], 8 µg/mL; in assay [6] it was above 32 µg/mL. In addition, the MIC in assay [7] is above 32 µg/mL; in assay [8], 1 µg/mL (≈ 1.02 µM); in [9], “<=0.06 μg/ml”; in [10], above 32 µg/mL.

Regarding `CC[C@H]1OC(=O)[C@H](C)[C@@H](O[C@H]2C[C@@](C)(OC)[C@@H](O)[C@H](C)O2)[C@H](C)[C@@H](O[C@@H]2O[C@H](C)C[C@H](N(C)C)[C@H]2O)[C@](C)(OC)C[C@@H](C)C(=O)[C@H](C)[C@H]2[C@H](SCCCN3C(=O)c4cccnc4C3=O)C(=O)O[C@@]21C` [Example 5], the MIC result is “<=0.06 μg/ml” in [1]; 8 µg/mL in assay [2]; 16 µg/mL in assay [3]; 8 µg/mL in assay [4]; 8 µg/mL in [5]; above 32 µg/mL in assay [6]. Moreover, the MIC is above 32 µg/mL in [7], 2 µg/mL (≈ 2.02 µM) in [8], “<=0.06 μg/ml” in assay [9] and 16 µg/mL (≈ 16.1 µM) in assay [10].

As for `CC[C@H]1OC(=O)[C@H](C)[C@@H](O[C@H]2C[C@@](C)(OC)[C@@H](O)[C@H](C)O2)[C@H](C)[C@@H](O[C@@H]2O[C@H](C)C[C@H](N(C)C)[C@H]2O)[C@](C)(OC)C[C@@H](C)C(=O)[C@H](C)[C@H]2[C@H](SCCn3ccc(-c4cccnc4)n3)C(=O)O[C@@]21C` [Example 17], the MIC entry is “<=0.06 μg/ml” in assay [1]; 0.5 µg/mL in assay [2]; 1 µg/mL in assay [3]; 4 µg/mL in [4]; 4 µg/mL in assay [5]; above 32 µg/mL in [6]. Moreover, the MIC was above 32 µg/mL in assay [7], 1 µg/mL (≈ 1.03 µM) in [8], “<=0.06 μg/ml” in assay [9] and 16 µg/mL (≈ 16.4 µM) in [10].

Regarding `CC[C@H]1OC(=O)[C@H](C)[C@@H](O[C@H]2C[C@@](C)(OC)[C@@H](O)[C@H](C)O2)[C@H](C)[C@@H](O[C@@H]2O[C@H](C)C[C@H](N(C)C)[C@H]2O)[C@](C)(OC)C[C@@H](C)C(=O)[C@H](C)[C@H]2[C@H](SCCn3cncn3)C(=O)O[C@@]21C` [Example 18], the MIC entry is “<=0.06 μg/ml” in [1]; 2 µg/mL in assay [2]; 4 µg/mL in assay [3]; 2 µg/mL in [4]; 2 µg/mL in [5]; “>=32 μg/ml” in assay [6]. The MIC in assay [7] is 32 µg/mL (≈ 35.6 µM); in assay [8] it was 1 µg/mL (≈ 1.11 µM); in assay [9] it was “<=0.06 μg/ml”; in assay [10], above 32 µg/mL.

Take `CC[C@H]1OC(=O)[C@H](C)[C@@H](O[C@H]2C[C@@](C)(OC)[C@@H](O)[C@H](C)O2)[C@H](C)[C@@H](O[C@@H]2O[C@H](C)C[C@H](N(C)C)[C@H]2O)[C@](C)(OC)C[C@@H](C)C(=O)[C@H](C)[C@H]2[C@H](SCC(=O)c3ccc(N(CC)CC)cc3)C(=O)O[C@@]21C` [Example 26]: the MIC in assay [1] was 0.125 µg/mL; in assay [2], above 32 µg/mL; in [3], above 32 µg/mL; in assay [4] it was above 32 µg/mL; in assay [5], 16 µg/mL; in assay [6], above 32 µg/mL. Further, the MIC in assay [7] is above 32 µg/mL; in assay [8] it was 2 µg/mL (≈ 2.01 µM); in [9] it was 0.125 µg/mL (≈ 0.126 µM); in assay [10] it was above 32 µg/mL.

`CC[C@H]1OC(=O)[C@H](C)[C@@H](O[C@H]2C[C@@](C)(OC)[C@@H](O)[C@H](C)O2)[C@H](C)[C@@H](O[C@@H]2O[C@H](C)C[C@H](N(C)C)[C@H]2O)[C@](C)(OC)C[C@@H](C)C(=O)[C@H](C)[C@H]2[C@H](SCCN(C)CCn3cnc4c(N)ncnc43)C(=O)O[C@@]21C` [Example 14]: the MIC result in [1] was “<=0.06 μg/ml”; in [2] it was 0.5 µg/mL; in assay [3] it was 1 µg/mL; in assay [4], 8 µg/mL; in assay [5], 8 µg/mL; in assay [6], 16 µg/mL (≈ 15.7 µM). Further, the MIC was above 32 µg/mL in assay [7], 2 µg/mL (≈ 1.96 µM) in [8], “<=0.06 μg/ml” in assay [9] and 16 µg/mL (≈ 15.7 µM) in assay [10].

On to `CC[C@H]1OC(=O)[C@H](C)[C@@H](O[C@H]2C[C@@](C)(OC)[C@@H](O)[C@H](C)O2)[C@H](C)[C@@H](O[C@@H]2O[C@H](C)C[C@H](N(C)C)[C@H]2O)[C@](C)(OC)C[C@@H](C)C(=O)[C@H](C)[C@H]2[C@H](SCCCn3cnc4cccnc43)C(=O)O[C@@]21C` [Example 12], for which the MIC result is “<=0.06 μg/ml” in assay [1]; 0.5 µg/mL in [2]; 1 µg/mL in [3]; 4 µg/mL in [4]; 8 µg/mL in assay [5]; 8 µg/mL (≈ 8.31 µM) in assay [6]. For the same molecule, the MIC in [7] is above 32 µg/mL; in assay [8], 2 µg/mL (≈ 2.08 µM); in assay [9], “<=0.06 μg/ml”; in assay [10], 8 µg/mL (≈ 8.31 µM).
